Results reported in patent publication US20240400542A1 (University of Virginia Patent Foundation, priority 2021, published 2024).

Columns and labels:
Assay in all cases: SILAC competitive chemical proteomic assay (TH211 probe, LC-MS/MS)
[1] = test system: Heat shock protein HSP 90-beta; assay type: cell-based, human; details: TH207 inhibitor; HEK293T soluble fraction; tyrosine 61
Procedure: (§1) The light and heavy proteomes (2.3 mg/mL, 432 μL) prepared from HEK293T cells that were pretreated in situ with vehicle (DMSO) or the inhibitor (2 μM), respectively, at 37° C. for 1 hr followed by probe TH211 treatment (50 μM) for 2 h, were directly were subjected to click reaction with the desthiobiotin-PEG3-azide (10 mM in DMSO, 10 μL, final concentration 200 μM) in the presence of TCEP (50 mM, 10 μL), TBTA (1.7 mM, 33 μL) and CuSO4 (50 mM, 10 μL) at room temperature for 1 hr. The light and the heavy samples were mixed in the chloroform-methanol extraction step. The subsequent steps including reduction with dithiothreitol, alkylation with iodoacetamide, digestion with Trypsin/Lys-C, enrichment with avidin beads were conducted as previously described^26.

[2] = molecular target: T1, Proteasome subunit alpha type-2 (Homo sapiens, UniProt P25787); assay type: cell-based; details: TH207 inhibitor; HEK293T soluble fraction; P25787.2 lysine 92
T1 construct: endogenous in cells; host or cells: HEK293T
Procedure: as §1

Sorting nexin-6 = molecular target: T2, Sorting nexin-6 (Homo sapiens, UniProt Q9UNH7); assay type: cell-based; details: TH207 inhibitor; HEK293T soluble fraction; Q9UNH7.1 lysine 204
T2 construct: endogenous in cells; host or cells: HEK293T
T2 sequence (Q9UNH7 1-406): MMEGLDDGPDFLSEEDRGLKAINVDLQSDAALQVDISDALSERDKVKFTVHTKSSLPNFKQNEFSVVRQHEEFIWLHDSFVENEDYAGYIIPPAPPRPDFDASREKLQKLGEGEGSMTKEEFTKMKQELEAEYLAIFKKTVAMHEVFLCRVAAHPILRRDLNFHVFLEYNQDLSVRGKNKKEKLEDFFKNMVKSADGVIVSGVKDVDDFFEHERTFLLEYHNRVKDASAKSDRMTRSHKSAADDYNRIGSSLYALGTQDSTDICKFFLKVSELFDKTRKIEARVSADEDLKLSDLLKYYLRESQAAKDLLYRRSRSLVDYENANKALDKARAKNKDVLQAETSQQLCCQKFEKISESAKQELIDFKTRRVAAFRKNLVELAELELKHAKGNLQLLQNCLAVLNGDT
Procedure: as §1

[3] = molecular target: T3, Inosine-5′-monophosphate dehydrogenase 2 (Homo sapiens, UniProt P12268); assay type: cell-based; details: TH207 inhibitor; HEK293T soluble fraction; P12268.2 tyrosine 509
T3 construct: endogenous in cells; host or cells: HEK293T
Procedure: as §1

PFKL = molecular target: T4, PFKL (Homo sapiens, UniProt P17858); assay type: cell-based
T4 construct: endogenous in cells; host or cells: HEK293T
T4 sequence (P17858 1-780): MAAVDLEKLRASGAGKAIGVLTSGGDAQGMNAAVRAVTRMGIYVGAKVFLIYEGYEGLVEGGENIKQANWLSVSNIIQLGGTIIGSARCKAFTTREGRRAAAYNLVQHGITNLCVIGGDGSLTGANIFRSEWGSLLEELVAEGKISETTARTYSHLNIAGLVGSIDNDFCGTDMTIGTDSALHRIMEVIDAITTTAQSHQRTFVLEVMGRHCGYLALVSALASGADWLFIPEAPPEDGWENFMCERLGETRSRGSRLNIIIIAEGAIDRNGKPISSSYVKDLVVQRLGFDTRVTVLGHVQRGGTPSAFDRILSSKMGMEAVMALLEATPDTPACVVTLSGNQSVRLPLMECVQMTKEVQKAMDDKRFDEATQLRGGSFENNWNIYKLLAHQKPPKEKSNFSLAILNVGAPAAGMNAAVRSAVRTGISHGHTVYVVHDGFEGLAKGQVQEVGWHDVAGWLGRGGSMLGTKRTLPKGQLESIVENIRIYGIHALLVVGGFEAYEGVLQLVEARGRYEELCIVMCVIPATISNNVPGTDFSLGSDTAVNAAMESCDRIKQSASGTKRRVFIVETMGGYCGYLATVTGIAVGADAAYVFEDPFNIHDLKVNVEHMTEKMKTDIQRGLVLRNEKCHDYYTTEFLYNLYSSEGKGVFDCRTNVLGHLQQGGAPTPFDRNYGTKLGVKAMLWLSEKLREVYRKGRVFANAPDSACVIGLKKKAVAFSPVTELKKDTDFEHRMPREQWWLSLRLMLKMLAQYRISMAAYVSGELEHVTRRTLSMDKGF
Procedure: as §1
Some SuTEx analogues with RF001 fragment were synthesized and characterized. The in situ competition assay was then conducted, during which HEK293T cells were treated with 1 μM of a SuTEx analogue for 1 h, followed by treatment with 25 μM of TH211 as the probe for 2 h. […] The analogues with electron-donating groups like methyl or methoxy on the para position of phenyl performed better than those with electron-withdrawing groups. Under the same condition, the IC5o of TH220 was determined as 305.6 nM. The identity of the bound protein was studied by LC-MS/MS. The assay results indicated PFKL as the potential target and that binding sites include Y674 and K677, since the ratio trends are the same as that found in the in situ competition assay. To study selective targeting of PFKL by the series of SuTEx analogues, Fag-PFKL, Flag-PFKM, and Flag-PFKP were overexpressed in HEK293T cells and in vitro competition assays were performed for comparison. […] To optimize these SuTEx ligands, another series of derivatives were synthesized and evaluated with TH233 as a negative control and TH220 as positive control, respectively. […] Compared to TH220, the probinding activity of XJ-2-103 with trifluoromethyl group at para position of the phenyl ring is not as good, which is consistent with the results shown in FIG. 18A.

T3 sequence (P12268 2-514 limits assumed): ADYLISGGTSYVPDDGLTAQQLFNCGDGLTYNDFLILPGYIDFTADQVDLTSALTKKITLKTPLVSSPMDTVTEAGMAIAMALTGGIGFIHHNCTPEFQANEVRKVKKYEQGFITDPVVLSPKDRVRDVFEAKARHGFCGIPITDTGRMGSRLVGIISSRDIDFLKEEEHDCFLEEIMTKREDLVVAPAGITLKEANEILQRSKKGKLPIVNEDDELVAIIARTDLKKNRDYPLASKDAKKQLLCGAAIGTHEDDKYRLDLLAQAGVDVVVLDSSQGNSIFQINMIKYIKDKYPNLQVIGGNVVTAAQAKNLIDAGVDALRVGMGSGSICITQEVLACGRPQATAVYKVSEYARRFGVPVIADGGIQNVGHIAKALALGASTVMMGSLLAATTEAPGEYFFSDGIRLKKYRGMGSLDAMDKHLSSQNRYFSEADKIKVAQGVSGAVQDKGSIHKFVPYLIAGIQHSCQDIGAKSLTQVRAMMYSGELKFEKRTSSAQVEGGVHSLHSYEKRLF

SMILES: Cc1ccc(S(=O)(=O)n2cc(CCN3CCC(=C(c4ccc(F)cc4)c4ccc(F)cc4)CC3)nn2)cc1 [TH207, 4-(Bis(4-fluorophenyl)methylene)-1-(2-(1-tosyl-1H-1,2,3-triazol-4-yl)ethyl)piperidine]
- Normalized SILAC ratio (SR), Heat shock protein HSP 90-beta Y61 [1]: 1.5
- Normalized SILAC ratio (SR), Proteasome subunit alpha type-2 K92 [2]: 1.2
- Normalized SILAC ratio (SR), Sorting nexin-6 K204 (Sorting nexin-6): 6.9
- Normalized SILAC ratio (SR), Inosine-5′-monophosphate dehydrogenase 2 Y509 [3]: 1.6
- SILAC ratios (SR) from competitive chemical proteomic assay (PFKL; HEK293T in situ, vehicle (light) vs inhibitor 2 μM (heavy) 1 hr, then TH211 50 μM 2 h, protein/site not given): 3.41
- Normalized SILAC ratio (SR), PFKL K677 (PFKL; TH207 inhibitor, HEK293T soluble fraction, P17858.6 lysine 677): 2.7
- Normalized SILAC ratio (SR), PFKL Y674 (PFKL; TH207 inhibitor, HEK293T soluble fraction, P17858.6 tyrosine 674): 2.7
